Assay results: patent US12630785B2, “Liquid fabric care compositions comprising capsules” (The Procter & Gamble Company, priority 2020, dated 2026)

How the values were obtained:
[1] = Capsule perfume leakage in liquid fabric enhancer (LFE), headspace SPME GC/MS; format: physicochemical
Protocol: The testing of capsule leakage in liquid compositions (e.g., liquid fabric enhancer/“LFE” compositions and/or heavy-duty liquid/“HDL” detergents) is performed as follows. […] The 1 gram aliquot in the 7 ml vial is then mixed on a stirring plate for 24 h at 500 rpm, thereby ensuring that the capsules are broken by the grinding action of the stir bar against the bottom of the 7 ml vial. Optical microscopy can be used to verify that no more intact capsules remain. In case such capsules are found, the step is to repeated for an additional 24 h, or until all or almost all capsules are broken. Then, the formulation containing broken capsules is introduced into GC vials in a similar manner as for step (a). This yields total oil samples. It is to be noted that the capsule sample and the total oil sample are not analyzed on the same day, as there is a need to prepare the total oil sample after the capsule sample has been removed from storage. […] The perfume oil composition formulated herein is representative of the perfume oil composition that is present in the slurry. Then the free oil formulation is introduced into GC vials in a similar manner as for step (a). This yields reference samples, which must be used when analyzing both the capsule sample and the total oil sample. […] Two headspace vials are prepared for each sample. The sealed headspace vials are then allowed to equilibrate. Samples reach equilibrium after 3 hours at room temperature, but can be left to sit longer without detriment or change to the results, up until 24 hours after sealing the headspace vial. After equilibrating, the samples are analyzed by GC/MS. […] The perfume composition is analyzed by fast GC/MS in full scan mode. Ion extraction of the specific mass for each component is obtained. The leakage is calculated as follows, separately for the capsule sample and total oil sample, where “Area” denotes the area under the chromatogram peak corresponding to the PRM of interest: Once calculated for all PRMs for both the total oil sample and the capsule sample, the corrected PRM leakage can be calculated using the following formula: Once the corrected PRM leakage has been calculated for all PRMs, the Average leakage can be found by taking the arithmetic mean of each corrected PRM leakage. […] The resulting products are stored for one week at 35° C. At the end of the storage period, samples of each product composition are analyzed for perfume leakage out of the capsule using headspace analysis. The data is reported as a percentage, determined by comparing the amount of the individual perfume raw materials found in the headspace to the amount originally provided to the capsules.

[2] = Capsule perfume leakage in heavy-duty liquid (HDL) detergent, headspace SPME GC/MS; format: physicochemical
Protocol: The testing of capsule leakage in liquid compositions (e.g., liquid fabric enhancer/“LFE” compositions and/or heavy-duty liquid/“HDL” detergents) is performed as follows. […] The 1 gram aliquot in the 7 ml vial is then mixed on a stirring plate for 24 h at 500 rpm, thereby ensuring that the capsules are broken by the grinding action of the stir bar against the bottom of the 7 ml vial. Optical microscopy can be used to verify that no more intact capsules remain. In case such capsules are found, the step is to repeated for an additional 24 h, or until all or almost all capsules are broken. Then, the formulation containing broken capsules is introduced into GC vials in a similar manner as for step (a). This yields total oil samples. It is to be noted that the capsule sample and the total oil sample are not analyzed on the same day, as there is a need to prepare the total oil sample after the capsule sample has been removed from storage. […] The perfume oil composition formulated herein is representative of the perfume oil composition that is present in the slurry. Then the free oil formulation is introduced into GC vials in a similar manner as for step (a). This yields reference samples, which must be used when analyzing both the capsule sample and the total oil sample. […] Two headspace vials are prepared for each sample. The sealed headspace vials are then allowed to equilibrate. […] After equilibrating, the samples are analyzed by GC/MS. […] The perfume composition is analyzed by fast GC/MS in full scan mode. Ion extraction of the specific mass for each component is obtained. The leakage is calculated as follows, separately for the capsule sample and total oil sample, where “Area” denotes the area under the chromatogram peak corresponding to the PRM of interest: Once calculated for all PRMs for both the total oil sample and the capsule sample, the corrected PRM leakage can be calculated using the following formula: Once the corrected PRM leakage has been calculated for all PRMs, the Average leakage can be found by taking the arithmetic mean of each corrected PRM leakage. […] The resulting products are stored for one week at 35° C. At the end of the storage period, samples of each product composition are analyzed for perfume leakage out of the capsule using headspace analysis. The data is reported as a percentage, determined by comparing the amount of the individual perfume raw materials found in the headspace to the amount originally provided to the capsules.

[3] = PRM of Perfume 1 out of Comparative Example 4-1 capsules (polyacrylate shell), LFE Composition 1, 0.25 wt % perfume
[4] = PRM of Perfume 1 out of Comparative Example 6-1 capsules (no second shell component), LFE Composition 1
[5] = PRM of Perfume 1 out of Comparative Example 10-1 capsules (per EP2500087B1), LFE Composition 1
[6] = PRM of Perfume 1 out of Comparative Example 10-2 capsules (per WO2010013250A2, with IPM), LFE Composition 1
[7] = PRM of Perfume 1 out of Example 2, Sample A capsules, LFE Composition 1 (Ester Quat 1)
[8] = PRM of Perfume 1 out of Example 2, Sample A capsules, LFE Composition 2 (Ester Quat 2)
[9] = PRM of Perfume 1 out of Example 2, Sample A capsules, LFE Composition 3 (Ester Quat 3)
[10] = PRM of Perfume 1 out of Example 4-1 capsules (silica shell), LFE Composition 1, 0.25 wt % perfume
[11] = PRM of Perfume 1 out of Example 6-1 capsules (w/ second shell component), LFE Composition 1
[12] = PRM of Perfume 1 out of Example 10-1 capsules (Sample F, Perfume 1/IPM 40/60), LFE Composition 1
[13] = PRM of Perfume 1 out of Example 10-2 capsules (Sample A), LFE Composition 1
[14] = PRM of Perfume 1 out of Comparative Example 5-1 capsules (polyacrylate shell)
[15] = PRM of Perfume 1 out of Comparative example 5-2 capsules (per EP2500087B1)
[16] = PRM of Perfume 1 out of Comparative example 5-3 capsules (per WO2010013250A2)
[17] = PRM of Perfume 1 out of Example 5-1 capsules (silica shell)
[18] = PRM of Perfume 2 out of Capsule Sample C, LFE Composition 1
[19] = PRM of Perfume 3 out of Capsule Sample D, LFE Composition 1

Row | Structure (SMILES) | Leakage (as %) after 1 week at 35° C. [1, 3] [%] | Leakage (as %) after 1 week at 35° C. [1, 4] [%] | Leakage (as %) after 1 week at 35° C. [1, 5] [%] | Leakage (as %) after 1 week at 35° C. [1, 6] [%] | Leakage (as %) after 1 week at 35° C. [1, 7] [%] | Leakage (as %) after 1 week at 35° C. [1, 8] [%] | Leakage (as %) after 1 week at 35° C. [1, 9] [%] | Leakage (as %) after 1 week at 35° C. [1, 10] [%] | Leakage (as %) after 1 week at 35° C. [1, 11] [%] | Leakage (as %) after 1 week at 35° C. [1, 12] [%] | Leakage (as %) after 1 week at 35° C. [1, 13] [%] | Leakage (as %) after 1 week at 35° C. [2, 14] [%] | Leakage (as %) after 1 week at 35° C. [2, 15] [%] | Leakage (as %) after 1 week at 35° C. [2, 16] [%] | Leakage (as %) after 1 week at 35° C. [2, 17] [%] | Leakage (as %) after 1 week at 35° C. [1, 18] [%] | Leakage (as %) after 1 week at 35° C. [1, 19] [%] | Leakage (as %) after 1 week at 35° C. ([1]; PRM of Perfume 4 out of Comparative Example 9-1 capsules (per EP3078415A), LFE Composition 1) [%] | Leakage (as %) after 1 week at 35° C. ([1]; PRM of Perfume 4 out of Comparative Example 9-2 capsules (per EP3078415A, additional TEOS), LFE Composition 1) [%] | Leakage (as %) after 1 week at 35° C. ([1]; PRM of Perfume 4 out of Example 9-1 capsules (Sample E), LFE Composition 1) [%]
1 | CC(=O)OC1CCCCC1C(C)(C)C (stereo not shown) [(2-tert-butylcyclohexyl) acetate] | 4 | 5 | 91 | 92 | 2.2 | 1.1 | 1.3 | 10 | 11 | 20 | 11 | 1 | 105 | 101 | 33 |  |  |  |  | 
2 | CC(=O)OC1CCC(C(C)(C)C)CC1 (stereo not shown) [(4-tert-butylcyclohexyl) acetate] | 3 | 4 | 85 | 91 | 0.1 | 0.1 | 0.7 | 6 | 7 | 15 | 7 | 0 | 108 | 100 | 27 |  |  |  |  | 
3 | CCOC(=O)C(C)CC (stereo not shown) [Ethyl 2-methyl butyrate] | 61 | 101 | 100 | 100 | 1.3 | 1.0 | 2.2 | 4 | 6 | 28 | 6 | 75 | 103 | 99 | 38 | 21 | 14 |  |  | 
4 | CC12CCC(CC1)C(C)(C)O2 [Eucalyptol] | 5 | 72 | 97 | 96 | 2.1 | 1.3 | 2.0 | 7 | 8 | 26 | 8 | 1 | 104 | 101 | 28 |  |  |  |  | 
5 | CCC(C)(O)CCCC(C)C (stereo not shown) [Tetrahydro linalool] | 9 | 83 | 90 | 95 | 2.3 | 1.1 | 1.2 | 8 | 8 | 18 | 8 | 2 | 105 | 102 | 27 | 9 | 9 | 70 | 76 | 17
6 | CCC(C)CCCC(C)(C)O (stereo not shown) [Tetrahydro myrcenol] | 10 | 86 | 88 | 95 | 2.4 | 1.2 | 1.2 | 8 | 7 | 17 | 7 | 3 | 107 | 105 | 26 |  |  |  |  | 
